# Source: US5952312A, “NADH and NADPH therapeutic agents for nasal, sublingual, rectal and dermal administration” (Birkmayer Pharmaceuticals, Inc., priority 1998, dated 1999)
# Entries after “also recorded” stand apart in the source; their conditions may differ. Structures can show the parent of a compound that is named as a salt.
# Columns and labels:
# [1] = tested on: cell degeneration; conditions: presence of uncoupled mitochondria; cited from earlier work
# [2] = tested on: skin cells; assay: topical application: skin cell life, water uptake, wrinkles; assay type: in vivo
# Source text: (§1) The NADH encapsulated by the liposomes is simply applied topically to the skin, and is rubbed into the skin to ensure penetration.
# [3] = tested on: Alzheimer's disease; conditions: orally or intravenously; cited from earlier work
# [4] = dissolution in fluids secreted by the olfactory mucous membrane; assay type: physicochemical; conditions: fluids of the olfactory epithelium
# Protocol: Thus, in accordance with the invention, the NADH may be administered to the nasal cavity of a patient afflicted with Parkinson's disease, Alzheimer's disease or mental depression. The NADH may be applied alone or in combination with other substances, for example, a pharmaceutically acceptable carrier or an agent that facilitates the transfer of the NADH through the nasal mucosa. The NADH is administered intranasally as a powder, spray, gel, ointment, infusion, injection or nose drops. The NADH is delivered to the nasal cavity. It is preferred that the NADH be delivered to the olfactory area in the upper third of the nasal cavity, and particularly to the olfactory neuroepithelium in order to promote transport of the NADH into the peripheral olfactory neurons rather than the capillaries within the respiratory epithelium. It is preferred that the transport of NADH to the brain be by means of the nervous system rather than the circulatory system so that the blood-brain barrier from the bloodstream into the brain is circumvented. However, good results can also be obtained through the bloodstream. […] The NADH may be combined with a carrier or other substance that fosters dissolution within nasal secretions, such as the ganglioside GM-1 or the phospolipid phosphatidylserine, or emulsifiers such as polysorbate 80. […]
# [5] = tested on: skin proliferation layer cells; assay type: in vivo; conditions: topical; for penetration of cutis and entry into cells of the skin proliferation layer: radiolabelled
# [6] = after intravenous application; cited from earlier work
# [7] = stability against pH; assay type: physicochemical
# Source text: The NADH may be entrapped in the liposomes in either of two ways. The NADH may be dissolved in the organic solvent together with the lipid(s) and the detergent(s) during the liposome formation. By this procedure, the NADH will be present in the lipid film before the film is solubilized. Alternatively, the NADH may be entrapped by dissolving it in the aqueous solvent (preferably buffered) before the lipid film is exposed to the aqueous solvent. It is important that the aqueous solution of NADH not have a pH below 7 as NADH (and NADPH) are very unstable at pHs below 7. This second method of entrapment (i.e., dissolving NADH in aqueous solution) is preferred.
# [8] = shelf/storage stability of pure substance and formulations; assay type: physicochemical; conditions: protected from light
# Source text: (§2) Although NADH and/or NADPH may be used by themselves in pure form (they are quite stable in compressed form when protected from light), it is preferred that they be combined in a galenic formulation with a stabilizer, and most preferably with both a stabilizer and a filler. The use of a stabilizer is preferred to prevent oxidation of NADH and NADPH to NAD^+ and […] , respectively. Although, NADH and NADPH are active for the variety of therapeutic effects discussed above, NAD^+ and NADP^+ are ineffective. Therefore, oxidation of NADH and NADPH must be prevented during storage to provide for a reasonable shelf life. […] NADH/NADPH formulations containing such stabilizers are stable for up to two years. Other various stabilizers will become apparent tc those skilled in the art.
# In general, a preferred formulation will include about 3 to 10% by weight NADH and/or NADPH; about 1 to 10% by weight stabilizer; and the remainder as filler. Such a formulation, after being compressed into a pill and coated, is stable for over 24 months.
# [9] = tested on: mitochondria; assay: stimulation of mitochondrial energy production of skin cells; assay type: cell-based
# Source text: as §1
# [10] = oral form; cited from earlier work
# [11] = nasal absorption and transport to the brain; assay type: in vivo; conditions: inhaled through nasal passages
# Source text: For a powder spray, the NADH is simply ground into a fine powder and atomized from a spray bottle. Preferably, pure NADH is used for the powder spray, however, it can be used in conjunction with a filler, such as mannitol, as described below.
# [12] = sublingual administration; assay type: in vivo
# Source text: The NADH is merely placed underneath the tongue and resorbed. Unlike the oral form of NADH described in U.S. Pat. No. 5,332,727, a sublingual form should not be coated with an acid stable protective coating.
# [13] = tested on: Parkinson's disease; assay: nasal administration in Parkinson's disease; assay type: in vivo, human
# Source text: (§3) However, I have now discovered that NADH and/or NADPH is also effective when administered topically (as described above for prolonging the life of skin cells and reducing wrinkles), sublingually, rectally and nasally.
# [14] = tested on: mitochondrial enzymes; assay: stimulation of enzymes essential for the energy production of skin cells; assay type: cell-based; conditions: topical
# Source text: In accordance with the invention, an NADH and/or NADPH composition is provided for topical application to the skin. […] The enzymes stimulated are principally the mitochondrial enzymes. The NADH and/or NADPH can be incorporated into a skin compatible cream, lotion or cosmetic, or can be combined with micelles of lipophilic substances. Liposomes are preferred vesicles for delivering the greatest dosages of NADH and/or NADPH into the skin.
# [15] = tested on: Alzheimer's disease; assay: nasal administration in Alzheimer's disease; assay type: in vivo, human
# Source text: as §3
# [16] = tested on: Parkinsonian patients; assay: motor system in Parkinsonian patients; assay type: in vivo, human; conditions: sublingual, rectal or nasal; single 5 to 500 mg, daily 5 to 1,500 mg
# Protocol: A suitable single dose of NADH and/or NADPH for sublingual, rectal or nasal application is 5 to 500 mg, preferably 25 to 100 mg. A suitable daily dose is 5 to 1,500 mg, preferably 25 to 300 mg.
# [17] = compatibility with lactose; assay type: physicochemical; conditions: lactose as filler
# Source text: Suitable fillers for use with NADH and NADPH include: mannitol, microcrystalline cellulose, carboxymethyl cellulose; and dibasic calcium phosphate. Other suitable fillers will become apparent to those skilled in the art.
# [18] = rectal administration (suppositories); assay type: in vivo
# Protocol: It has also been discovered that good results are obtained when NADH is administered rectally. […] NADH may be administered rectally in the form of suppositories. A suitable suppository formulations are: […]
# [19] = tested on: Parkinson's disease; conditions: intravenous, patients with Parkinson's disease; cited from earlier work
# [20] = tested on: Parkinson's disease; conditions: earlier patents; cited from earlier work
# [21] = therapeutic activity of the oxidized forms; conditions: in vivo
# Source text: as §2
Structure (SMILES),cell life [2],water uptake by the cell / wrinkle formation [2],effectiveness in Alzheimer's disease [3],dissolution in nasal secretions [4],absorption by the skin and uptake by the skin cells [5],"entry into cells of the proliferation layer, not encapsulated by liposomes [5]",penetration of cutis and entry into cells of the skin proliferation layer [5],degradation in plasma and blood [6],stability at pH below 7 [7],stability in pure compressed form [8],distribution to mitochondria and stimulation of energy production of the cell [9],absorption by the intestine [10],effectiveness when administered sublingually [12],stimulation of enzymes essential for energy production of skin cells [14],effect on motor system [16],beneficial effect [19],duration of beneficial effect [19],usefulness/effectiveness in Parkinson's disease [20],therapeutic effectiveness of oxidized forms [21],other results
C[C@@H](O)CC(=O)O [D(-)-β-hydroxybutyrate sodium salt],–,–,–,–,–,–,–,–,–,–,–,–,–,–,–,–,–,–,–,inhibition of cell degeneration [1]: inhibited cell degeneration resulting from the presence of uncoupled mitochondria in a dose dependent manner
"NC(=O)C1=CN([C@@H]2O[C@H](COP(=O)(O)OP(=O)(O)OC[C@H]3O[C@@H](n4cnc5c(N)ncnc54)[C@H](O)[C@@H]3O)[C@@H](O)[C@H]2O)C=CC1 [NADH, nicotinamide adenine dinucleotide in its reduced form]",prolonged cell life,"increased water uptake by the cell, thereby reducing wrinkle formation",effective in the treatment of Parkinson's disease and Alzheimer's disease,capable of at least partially dissolving in the fluids,absorbed by the skin and penetrate the cutis to be taken up by the skin cells,enters the cells of the proliferation layer,crosses the cutis and enters the cells which comprise the skin proliferation layer,not rapidly degraded in the plasma and blood,very unstable,quite stable,goes to the mitochondria where it stimulates the energy production of the cell,absorbed by the intestine,effective when administered sublingually,stimulate certain enzymes which are essential for the energy production of the cells,improve the motor system in Parkinsonian patients,remarkable beneficial effect,at least 24 hours,effective in the treatment of Parkinson's disease; also recorded: useful in the treatment of Parkinson's Disease,–,"nasal absorption and transport to the brain [11]: travels directly to the brain, circumventing the blood-brain barrier; also recorded: absorbed by the mucosa of the nose and travels to the brain through the olfactory neural pathway; speed of results, sublingual [12]: very fast results; effectiveness by nasal application in Parkinson's disease ([13]; nasal): particularly effective in the treatment of Alzheimer's disease and Parkinson's disease; therapeutic effects, nasal vs oral form ([13]; nasal powder spray): same therapeutic effects as the oral form; effectiveness by nasal application in Alzheimer's disease [15]: particularly effective in the treatment of Alzheimer's disease; speed of results, nasal [15]: very fast results; reaction with lactose [17]: reacts with NADH; results when administered rectally [18]: good results; speed of results, rectal ([18]; compared with nasal or sublingual): not obtained as quickly as in the case of nasal or sublingual administration"
"NC(=O)C1=CN([C@@H]2O[C@H](COP(=O)(O)OP(=O)(O)OC[C@H]3O[C@@H](n4cnc5c(N)ncnc54)[C@H](OP(=O)(O)O)[C@@H]3O)[C@@H](O)[C@H]2O)C=CC1 [NADPH, nicotinamide adenine phosphate dinucleotide in its reduced form]",prolonged cell life,"increased water uptake by the cell, thereby reducing wrinkle formation",effective in the treatment of Parkinson's disease and Alzheimer's disease,capable of at least partially dissolving in the fluids,absorbed by the skin and penetrate the cutis to be taken up by the skin cells,enters the cells of the proliferation layer,crosses the cutis and enters the cells which comprise the skin proliferation layer,not rapidly degraded in the plasma and blood,very unstable,quite stable,goes to the mitochondria where it stimulates the energy production of the cell,absorbed by the intestine,effective when administered sublingually,stimulate certain enzymes which are essential for the energy production of the cells,improve the motor system in Parkinsonian patients,remarkable beneficial effect,at least 24 hours,effective in the treatment of Parkinson's disease; also recorded: useful in the treatment of Parkinson's Disease,–,–
NC(=O)c1ccc[n+]([C@@H]2O[C@H](COP(=O)([O-])OP(=O)(O)OC[C@H]3O[C@@H](n4cnc5c(N)ncnc54)[C@H](OP(=O)(O)O)[C@@H]3O)[C@@H](O)[C@H]2O)c1 [NADP^+],–,–,–,–,–,–,–,–,–,–,–,–,–,–,–,–,–,–,ineffective,–
NC(=O)c1ccc[n+]([C@@H]2O[C@H](COP(=O)([O-])OP(=O)(O)OC[C@H]3O[C@@H](n4cnc5c(N)ncnc54)[C@H](O)[C@@H]3O)[C@@H](O)[C@H]2O)c1 [NAD^+],–,–,–,–,–,–,–,–,–,–,–,–,–,–,–,–,–,–,ineffective,–
